{"source": "paper PMC6066796", "about": "(Antiviral Research, 2018)", "key": {"[1]": {"system": "NiV-GFP2AM", "assay": "microbe, parasite or virus in culture", "assay_type": "cell-based, Nipah virus"}, "[2]": {"system": "SUDV (Gulu variant)", "assay_type": "cell-based"}, "[3]": {"system": "MARV-ZsG", "assay_type": "cell-based, Marburg virus"}, "[4]": {"system": "hPIV3-GFP", "assay": "microbe, parasite or virus in culture", "assay_type": "cell-based, human parainfluenza virus 3"}, "[5]": {"system": "rMV^EZEGFP(3)", "assay_type": "cell-based, Measles virus"}, "[6]": {"system": "EBOV-ZsG", "assay": "microbe, parasite or virus in culture", "assay_type": "cell-based, Ebola virus"}, "[7]": {"system": "rgRSV224", "assay": "microbe, parasite or virus in culture", "assay_type": "cell-based, respiratory syncytial virus"}, "[8]": {"system": "EBOV (Makona variant)", "assay_type": "cell-based, Ebola virus"}, "[9]": {"system": "RVFV-GFP, ZH501", "assay": "microbe, parasite or virus in culture", "assay_type": "cell-based, Rift Valley Fever virus"}, "[10]": {"system": "SUDV (Gulu variant)", "assay_type": "cell-based", "remark": "listed apart in the source"}, "[11]": {"system": "reporter EBOVs", "assay_type": "cell-based, Ebola virus"}, "[12]": {"system": "recombinant EBOV (Mayinga variant)", "assay_type": "cell-based, Ebola virus"}, "[13]": {"system": "NiV-GFP2AM", "assay": "microbe, parasite or virus in culture", "assay_type": "cell-based, Nipah virus", "remark": "listed apart in the source"}, "[14]": {"system": "henipavirus (NiV, HeV)", "assay_type": "cell-based, Nipah virus, Hendra virus"}, "[15]": {"system": "EBOV", "conditions": "at 1000 μM; cited from earlier work"}, "[16]": {"system": "Huh7 cells", "conditions": "human"}, "[17]": {"system": "NCI-H358 cells", "conditions": "human"}, "[18]": {"system": "NiV (Malaysian genotype)", "assay": "microbe, parasite or virus in culture", "assay_type": "cell-based, Nipah virus"}, "[19]": {"system": "HeLa cells", "conditions": "human"}, "[20]": {"system": "NCI-H358 cells"}, "[21]": {"system": "HeV", "assay": "microbe, parasite or virus in culture", "assay_type": "cell-based, Hendra virus"}, "[22]": {"system": "SK-N-MC cells", "conditions": "human"}, "[23]": {"system": "NiV and EBOV", "assay_type": "cell-based, Nipah virus, Ebola virus"}, "[24]": {"conditions": "Henipavirus nipahense, SAEC, in Homo sapiens"}}, "note": "Read-outs that look alike come from different tables or passages of the source.", "data": [{"compound": "2′-monofluoro-4′-azidocytidine [2′F-4′N3-C]", "values": [{"measurement": "Effect on CPE", "setting": "[1]", "value": "completely abolished"}, {"measurement": "Reduction of infectious SUDV yield", "setting": "[2]", "value": "approximately 1.5 orders of magnitude"}, {"measurement": "EC50", "setting": "[3]", "value": "> 50000", "unit": "nM"}, {"measurement": "Inhibition of MARV infection by FFU assay", "setting": "[3]", "value": "did not show any significant inhibition"}, {"measurement": "EC50", "setting": "[4]", "value": 160, "unit": "nM"}, {"measurement": "EC50", "setting": "[5]", "value": 270, "unit": "nM"}, {"measurement": "EC50", "setting": "[6]", "value": 3850, "unit": "nM"}, {"measurement": "EC50", "setting": "[7]", "value": 280, "unit": "nM"}, {"measurement": "Inhibition of FFU formation", "setting": "[8]", "value": "did not detect significant inhibition"}, {"measurement": "EC50", "setting": "[9]", "value": "> 50000", "unit": "nM"}, {"measurement": "EC50", "setting": "[10]", "value": "~10000", "unit": "nM"}, {"measurement": "Antiviral activity against reporter EBOVs in Huh7 cells", "setting": "[11]", "value": "significantly decreased antiviral activity"}, {"measurement": "EC50", "setting": "[12]", "value": 7790, "unit": "nM"}, {"measurement": "Effect on GFP expression", "setting": "[13]", "value": "completely abolished"}, {"measurement": "Reduction of infectious henipavirus yields", "setting": "[14]", "value": "4–5 orders of magnitude"}]}, {"compound": "NC(=O)c1nc(F)c[nH]c1=O", "note": "[Favipiravir]", "values": [{"measurement": "Decrease of EBOV infectious yield", "setting": "[15]", "value": 4, "unit": "logTCID50/mL"}]}, {"compound": "[N-]=[N+]=N[C@]1(CO)O[C@@H](n2ccc(N)nc2=O)[C@H](O)[C@@H]1O", "note": "[R1479, 4′-azidocytidine]", "values": [{"measurement": "R1479-TP level (intracellular triphosphate)", "setting": "[16]", "value": "18 ± 0.6", "unit": "pmol/million cells"}, {"measurement": "R1479-TP level (intracellular triphosphate)", "setting": "[17]", "value": "391 ± 72", "unit": "pmol/million cells"}, {"measurement": "SI (selective index)", "setting": "[18]", "value": "2.9 ± 0.95 [>34]"}, {"measurement": "EC50", "setting": "[18]; Henipavirus nipahense, NCI-H358", "value": 2900, "unit": "nM"}, {"measurement": "EC50", "setting": "[1]; [24]", "value": "> 50000", "unit": "nM"}, {"measurement": "Reduction of infectious SUDV titers", "setting": "[2]; at 25 μM", "value": "> 4 orders of magnitude"}, {"measurement": "Inhibition of MARV infection by FFU assay", "setting": "[3]", "value": "did not show any significant inhibition"}, {"measurement": "R1479-TP level (intracellular triphosphate)", "setting": "[19]", "value": "136 ± 21", "unit": "pmol/million cells"}, {"measurement": "SI (selective index)", "setting": "[4]", "value": "3.2 ± 0.50 [>32]"}, {"measurement": "EC50", "setting": "[4]; Human respirovirus 3, NCI-H358", "value": 3200, "unit": "nM"}, {"measurement": "SI (selective index)", "setting": "[5]", "value": "1.9 ± 0.12 [>52]"}, {"measurement": "SI (selective index)", "setting": "[6]", "value": "2.1 ± 0.07 [>47]"}, {"measurement": "EC50", "setting": "[6]; Zaire ebolavirus, NCI-H358", "value": 2100, "unit": "nM"}, {"measurement": "SI (selective index)", "setting": "[7]", "value": "3.3 ± 0.39 [>30]"}, {"measurement": "EC50", "setting": "[7]; human respiratory syncytial virus, NCI-H358", "value": 3300, "unit": "nM"}, {"measurement": "EC50", "setting": "[8]", "value": 2100, "unit": "nM"}, {"measurement": "Inhibition of FFU formation", "setting": "[8]", "value": "dose-dependent inhibition"}, {"measurement": "EC50", "setting": "[9]; Rift Valley fever virus, NCI-H358", "value": "> 50000", "unit": "nM"}, {"measurement": "Cytotoxicity (cell viability)", "setting": "[20]", "value": "mild cytotoxicity"}, {"measurement": "SI (selective index)", "setting": "[21]", "value": "2.1 ± 0.57 [>47]"}, {"measurement": "EC50", "setting": "[21]; Henipavirus hendraense, NCI-H358", "value": 2100, "unit": "nM"}, {"measurement": "Antiviral activity against reporter EBOVs in Huh7 cells", "setting": "[11]", "value": "significantly decreased antiviral activity"}, {"measurement": "EC50", "setting": "[12]", "value": 2600, "unit": "nM"}, {"measurement": "EC50", "setting": "[13]; [24]", "value": "> 50000", "unit": "nM"}, {"measurement": "R1479-TP level (intracellular triphosphate)", "setting": "[22]", "value": "42 ± 10", "unit": "pmol/million cells"}]}, {"compound": "[N-]=[N+]=N[C@]1(CO)O[C@@H](n2ccc(N)nc2=O)[C@@H](F)[C@@H]1O", "note": "[RO-0622, 2′-deoxy-2′-β-fluoro-4′-azidocytidine]", "values": [{"measurement": "Antiviral activity against NiV and EBOV", "setting": "[23]", "value": "little to no antiviral activity"}]}, {"compound": "[N-]=[N+]=N[C@]1(CO)O[C@@H](n2ccc(N)nc2=O)[C@@H](O)[C@@H]1O", "note": "[RO-9187, 2′-deoxy-2′-β-hydroxy-4′-azidocytidine]", "values": [{"measurement": "Antiviral activity against NiV and EBOV", "setting": "[23]", "value": "little to no antiviral activity"}]}]}
